# Laboratory results taken from patent US20220047569A1, “METHOD AND COMPOUND FOR USE, IN TREATING AND/OR PREVENTING NETOSIS” (Jubilant EpiPad LLC, priority 2020, published 2022).
# Legend:
# EMT-6 cells = experiment: Murine breast cancer efficacy model, EMT-6 allograft; format: in vivo, Balb/C female mice
# Description: PAD4 is highly expressed in malignant tumours of various cell types, Here, the mouse mammary carcinoma of 4T1 and EMT6 cells were used as an experimental model. Mouse 4T1, and EMT-6, a breast cancer cell line was sourced from American Type Culture Collection (ATCC), USA. Cells were grown according to the product information. To establish allografts, the cells were harvested by trypsinization when they reached around 70 to 80% confluence. After harvesting, Balb/C female mice (7-8 weeks) were implanted with 4T1 (1 million cells/site) and EMT-6 (0.5 million cells/site) subcutaneously in the dorsal right flank of mice using a 1 mL BD syringe attached to a 24-gauge needle. When the tumors became palpable tumor measurement was initiated and at an approximate tumor volume of ˜110 and 93 mm3, respectively. Animals were randomized into different treatment groups keeping tumor volume and the number of animals/group similar across the groups and compound 143 treatment was initiated. […]
# (§1) Tumor dimensions (length and breadth) were measured on days 1 (animal randomization based on tumor volume) and thrice weekly thereafter until study termination.
# Tumor volumes were calculated using the formula (b2*1)*0.52 where l=length, b=breadth (Dusan Djokovic et al., BMC Cancer, 2010, 10:641). […]
# DSS-induced colitis = experiment: Dextran sulfate sodium (DSS) induced colitis model; format: in vivo, C57BL/6 male mice; settings: PO BID
# Text: Ulcerative colitis (UC) is an intermittent inflammatory bowel disease of the colonic mucosa, with periods of exacerbated symptoms (the active phase of the disease), and periods that are relatively symptom-free (remission phase of disease). Among various chemical induced colitis models, DSS-induced colitis model is widely used because of its simplicity and many similarities with human ulcerative colitis. C57BL/6 male mice at 6-8 weeks of age were purchased from vivo biotech India (under the license from Taconic). The procedures involving the care and use of animals in the study was reviewed and approved by the Institutional Animal Care and Use Committee (IAEC/JDC/2018-161R) prior to conduct. During the study, the care and use of animals was in accordance with the principles outlined in the Guide for the Care and Use of Laboratory Animals, 8th Edition, 2010 (National Research Council) and every effort was made to minimize suffering. The animals were acclimatized for ˜10 days prior to experimental use. Mice were caged with free access to food and fresh water in a temperature-controlled room (22° C.-24° C.) on a 12 h light/dark cycle. On the day of DSS administration (day 0), labelled (using ear punch or any other convenient method) groups of control and experimental mice should be weighed and, if required, average group weight equilibrated so as to eliminate any significant weight difference between groups. Normal control animals were provided with regular drinking water and disease control animals were provided with 2.25% DSS in drinking water for 5 days (Day 1 to Day 5) and next 5 days, both the groups received regular drinking water (Day 6 to Day 10). DSS was replaced with fresh DSS formulation once in 2.5 days. Animals were dosed with Vehicle (0.5% Methyl cellulose in PBS+0.025% Tween-80), Compound 143, PO, bid and Fingolimod, PO, qd. Administration of 2.25% DSS in drinking water induced significant ulcerative colitis leading to ˜5-fold disease induction in mice of disease control group compared to normal control. […]
# 4T1 cells = experiment: Murine breast cancer efficacy model, 4T1 allograft; format: in vivo, Balb/C female mice; settings: for TGI (percent tumor growth inhibition): BID, PO, day 14, 4T1
# Description: PAD4 is highly expressed in malignant tumours of various cell types, Here, the mouse mammary carcinoma of 4T1 and EMT6 cells were used as an experimental model. Mouse 4T1, and EMT-6, a breast cancer cell line was sourced from American Type Culture Collection (ATCC), USA. Cells were grown according to the product information. To establish allografts, the cells were harvested by trypsinization when they reached around 70 to 80% confluence. After harvesting, Balb/C female mice (7-8 weeks) were implanted with 4T1 (1 million cells/site) and EMT-6 (0.5 million cells/site) subcutaneously in the dorsal right flank of mice using a 1 mL BD syringe attached to a 24-gauge needle. When the tumors became palpable tumor measurement was initiated and at an approximate tumor volume of ˜110 and 93 mm3, respectively. Animals were randomized into different treatment groups keeping tumor volume and the number of animals/group similar across the groups and compound 143 treatment was initiated. The procedures involving the care and use of animals in the study was reviewed and approved by the Institutional Animal Care and Use Committee (IAEC/JDC/2021/246R) prior to conduct. During the study, the care and use of animals was in accordance with the principles outlined in the Guide for the Care and Use of Laboratory Animals, 8th Edition, 2010 (National Research Council) and every effort was made to minimize suffering. The animals were acclimatized for 7 days prior to experimental use. Mice were caged with free access to food and fresh water in a temperature-controlled room (22° C.-24° C.) on a 12 h light/dark cycle.
# as §1
# Tumor volumes were calculated using the formula (b2*1)*0.52 where l=length, b=breadth (Dusan Djokovic et al., BMC Cancer, 2010, 10:641).
# The percent tumor growth inhibition (% TGI) as a function of anti-tumor efficacy were computed with respect to untreated vehicle control by comparing to the tumor volumes of day 1. […]
structure (smiles),measurement,setting,value
"N[C@@H]1CCCN(C(=O)c2cc3c4c(c2)nc(-c2cc5cccc(Cl)c5n2CC2CC2)n4CCO3)C1 [Compound 143, (R)-(3-aminopiperidin-1-yl)(2-(7-chloro-1-(cyclopropylmethyl)-1H-indol-2-yl)-3,4-dihydro-5-oxa-1,2a-diazaacenaphthylen-7-yl)methanone]",TGI (percent tumor growth inhibition),"EMT-6 cells; 50 mg/kg, BID, PO, day 13, EMT-6",42.6%
same,Body weight changes,"EMT-6 cells; EMT-6 bearing mice, BID PO for 13 days",no significant body weight changes
same,Disease reversal compared to disease control,DSS-induced colitis; 12.5 mg/kg,8.7%
same,Disease reversal compared to disease control,DSS-induced colitis; 25 mg/kg,26.6%
same,Disease reversal compared to disease control,DSS-induced colitis; 50 mg/kg,45.5%
same,TGI (percent tumor growth inhibition),4T1 cells; 25 mg/kg,24.3%
same,TGI (percent tumor growth inhibition),4T1 cells; 50 mg/kg,48.8%
same,Body weight changes,"4T1 cells; 4T1 bearing mice, BID PO for 14 days",no significant body weight changes
